Measurements taken from patent US20230157993A1, “PHARMACEUTICAL COMPOSITION FOR TREATING OR PREVENTING ALOPECIA INCLUDING DECURSIN” (University-Industry Cooperation Group of Kyung Hee …, priority 2021, published 2023).

Assays:
PI3K = experiment: Expression of PI3K in decursin-treated keratinocytes; assay type: cell-based, Human; conditions: TNF-α
[1] = tested on: hair follicles of dorsal skin tissues; experiment: Histological analysis (H&E) of dorsal skin hair follicles in CYP-induced alopecia mice; assay type: in vivo, C57BL/6J mice; conditions: topical decursin, FIG. 2
Description: (§1) All animal testing procedures were approved by the Laboratory Animal Care and Use Committee of Kyung Hee University (KHUASP(SE)-13-046). 5-week-old male C57BL/6J mice were purchased from Raonbio Co., Ltd. (Yongin, Korea). All mice were kept in plastic cages at 22±1° C. under 50±5% humidity with 12 hours of light-dark cycles. After 1 week of adaptation, mice were randomly assigned to 6 groups: (1) CTR, normal control group, (2) CYP, cyclophosphamide-induced alopecia group, (3) DEX, dexamethasone (DEX) treated in CYP-induced alopecia mice as positive controls, (4) D1, 1 μM decursin treated in CYP-induced alopecia mice, (5) D10, 10 μM decursin treated in CYP-induced alopecia mice, and (6) D100, 100 μM decursin treated in CYP-induced alopecia mice.
(§2) To synchronize the phases of the hair growth cycle, the dark hairs on the dorsal skin of all mice except the CTR group were shaved on day 0 using a shaving cream. 9 days later, 150 mg/kg of CYP (Sigma-Aldrich, MO, USA) was dissolved in saline and injected one time intraperitoneally into all mice except the CTR group. Injection of CYP induced the stage of hair follicles to turn into dystrophic catagen. From day 9 to day 16, 100 μL of 1, 10 and 100 μM decursin (Sigma-Aldrich) in saline containing 0.1% dimethyl sulfoxide was topically treated onto the shaved dorsal skin once a day. […]

p38 = experiment: Expression of p38 in decursin-treated keratinocytes; assay type: cell-based, Human; conditions: TNF-α
ERK = experiment: Expression of ERK in decursin-treated keratinocytes; assay type: cell-based, Human; conditions: TNF-α
[2] = tested on: keratinocyte growth factor (KGF); experiment: Immunofluorescence assay of KGF+ expression in dorsal skin tissue of CYP-induced alopecia mice; assay type: in vivo, C57BL/6J mice; conditions: CIA mice, FIG. 3
Description: as §1
To synchronize the phases of the hair growth cycle, the dark hairs on the dorsal skin of all mice except the CTR group were shaved on day 0 using a shaving cream. 9 days later, 150 mg/kg of CYP (Sigma-Aldrich, MO, USA) was dissolved in saline and injected one time intraperitoneally into all mice except the CTR group. Injection of CYP induced the stage of hair follicles to turn into dystrophic catagen. From day 9 to day 16, 100 μL of 1, 10 and 100 μM decursin (Sigma-Aldrich) in saline containing 0.1% dimethyl sulfoxide was topically treated onto the shaved dorsal skin once a day. As a positive control, 0.1% DEX was administered topically to the shaved area on days 1, 3, 5, 7, and 9 to 16. Physiological saline was treated to the CTR and CYP groups during the experiment. […] on day 17, all mice were sacrificed under anesthesia.
Paraffin tissue sections were hydrated with xylene and ethanol, followed by blocking with 1% bovine serum albumin (BSA). The slides were incubated overnight at 4° C. with primary anti-rabbit keratinocyte growth factor (KGF) antibody. Secondary HRP-conjugated fluorescent antibody was treated onto tissue slides for 1 hour at room temperature.

caspase-3 = experiment: Immunoblotting of caspase-3 in TNF-α-stimulated HaCaT keratinocytes; assay type: cell-based, Human; conditions: HaCaT cells; 10 nM decursin; 100 ng/mL TNF-α, 24 hours; FIG. 5
Description: (§3) Human keratinocyte HaCaT cells were grown at 37° C. under atmosphere with 95% humidity in the presence of 5% CO2, in Dulbecco's modified Eagle's medium (DMEM, Gibco; Thermo Fisher Scientific, Inc., Waltham, Mass., USA) supplemented with 10% v/v fetal bovine serum (FBS, Gibco), 2 mM glutamine, 100 IU/ml penicillin, and 100 μg/mL of streptomycin (Gibco). HaCaT cells were dispensed into 6-well plates by 1×10^6 cells/wells. After stabilization, 1 μM DEX and 0.1, 1, and 10 nM decursin were treated in the presence of 100 ng/mL of TNF-α for 24 hours.
(§4) Proteins were extracted from the collected skin tissues and HaCaT cells using RIPA lysis buffer (Tech & Innovation, Gangwon, Korea) containing a protease inhibitor cocktail (Roche, Hoffmann, USA). Lysates were quantified by the Bradford method and denatured with dodecyl sulfate buffer at 98° C. for 5 minutes. Proteins were electrophoresed onto a polyvinylidene fluoride membrane. The membranes were incubated continuously with primary anti-caspase-3, -7, and -8, followed with secondary HRP-conjugated anti-rabbit and anti-mouse antibodies.

AKT = experiment: Expression of AKT in decursin-treated keratinocytes; assay type: cell-based, Human; conditions: TNF-α
[3] = tested on: CYP-induced alopecia mice; experiment: Skin monitoring of hair growth with a digital dermatoscope in CYP-induced alopecia mice; assay type: in vivo, C57BL/6J mice; conditions: topical, all concentrations of decursin (1, 10, 100 μM) or 0.1% DEX, FIG. 1
Description: as §1, §2

[4] = tested on: keratinocyte growth factor (KGF); experiment: Immunoblotting of KGF protein expression in skin tissues of CYP-induced alopecia mice; assay type: in vivo, C57BL/6J mice; conditions: CIA mice; 100 μM decursin topical; FIG. 4
caspase-7 = experiment: Immunoblotting of caspase-7 in TNF-α-stimulated HaCaT keratinocytes; assay type: cell-based, Human; conditions: HaCaT cells; 10 nM decursin; 100 ng/mL TNF-α, 24 hours; FIG. 5
Description: as §3, §4

caspase-8 = experiment: Immunoblotting of caspase-8 in TNF-α-stimulated HaCaT keratinocytes; assay type: cell-based, Human; conditions: HaCaT cells; 10 nM decursin; 100 ng/mL TNF-α, 24 hours; FIG. 5
Description: as §3, §4

CC(C)=CC(=O)O[C@H]1Cc2cc3ccc(=O)oc3cc2OC1(C)C [decursin]
expression of PI3K (PI3K): suppression | hair follicle cycle stage (histology) [1]: hair follicles were in the anagen | shape of the ampulla of hair follicles, compared to CYP group [1]: normalized | expression of p38 (p38): suppression | expression of ERK (ERK): suppression | KGF+ expression in the skin tissue (immunofluorescence) ([2]; 1 μM decursin topical): increased | KGF+ expression in the skin tissue (immunofluorescence) ([2]; 10 μM decursin topical): increased | KGF+ expression in the skin tissue (immunofluorescence) ([2]; 100 μM decursin topical): increased | rate of decrease of TNF-α-induced caspase-3 protein level (caspase-3): 30.41% | expression of AKT (AKT): suppression | hair growth on the dorsal side (dermatoscope), compared to CYP group [3]: hair growth was observed | protein expression of KGF in skin tissues [4]: significantly increased | rate of decrease of TNF-α-induced caspase-7 protein level (caspase-7): 48.27% | rate of decrease of TNF-α-induced caspase-8 protein level (caspase-8): 41.07%
